Key:
[1] = tested on: galium; experiment: Test D postemergence; assay type: in vivo, Galium aparine; settings: scale 0 to 100
Excerpt: (§1) Seeds of plant species selected from bluegrass (annual bluegrass, Poa annua), blackgrass (Alopecurus myosuroides), canarygrass (Phalaris minor), chickweed (common chickweed, Stellaria media), galium (catchweed bedstraw, Galium aparine), bromegrass, down (downy bromegrass, Bromus tectorum), Russian thistle (Salsola kali), field poppy (Papaver rhoeas), field violet (Viola arvensis), foxtail, green (green foxtail, Setaria viridis), deadnettle (henbit deadnettle, Lamium amplexicaule), ryegrass, Ital. (Italian ryegrass, Lolium multiflorum), kochia (Kochia scoparia), lambsquarters (Chenopodium album), oilseed rape (Brassica napus), pigweed (Amaranthus retroflexus), chamomile (scentless chamomile, Matricaria inodora), speedwell (bird's-eye speedwell, Veronica persica), barley, spring (spring barley, Hordeum vulgare), wheat, spring (spring wheat, Triticum aestivum), buckwheat, wild (wild buckwheat, Polygonum convolvulus), wild mustard (Sinapis arvensis), oat, wild (wild oat, Avena fatua), radish, wild (wild radish, Raphanus raphanistrum), […]), barley, winter (winter barley, Hordeum vulgare), and wheat, winter (winter wheat, Triticum aestivum) were planted into a silt loam soil and treated preemergence with test chemicals formulated in a non-phytotoxic solvent mixture which included a surfactant. At the same time, these species were planted in pots containing Sunshine Redi-Earth® planting medium comprising spaghnum peat moss, vermiculite, starter nutrients and dolomitic limestone and treated with postemergence applications of the test chemicals formulated in the same manner. Plants ranged in height from 2 to 18 cm (1- to 4-leaf stage). Treated plants and controls were maintained in a controlled growth environment for 14 to 21 d after which time all species were compared to controls and visually evaluated. […] A dash (-) response means no test result.

[2] = tested on: barley, spring; experiment: Test D postemergence; assay type: in vivo, Hordeum vulgare; settings: scale 0 to 100
Excerpt: as §1

[3] = tested on: barley, winter; experiment: Test D postemergence; assay type: in vivo, Hordeum vulgare; settings: scale 0 to 100
Excerpt: as §1

[4] = tested on: galium; experiment: Test A postemergence; assay type: in vivo, Galium aparine; settings: 0 to 100 scale (0 no effect, 100 complete control), approx. 10 d
In short: (§2)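 Visual 0–100 ratings (0 no effect, 100 complete control) made roughly 10 days after treatment, comparing greenhouse-grown plants to untreated controls. Formulated test chemicals, with surfactant, went either as directed soil spray at planting or onto 2–10 cm seedlings bearing one to two leaves.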

[5] = tested on: radish, wild; experiment: Test D postemergence; assay type: in vivo, Raphanus raphanistrum; settings: scale 0 to 100
Excerpt: as §1

[6] = tested on: soybean; experiment: Test C preemergence; assay type: in vivo, Glycine max; settings: for Soybean plant response rating (0 to 100): Preemergence, visual rating after 13 to 15 d
Excerpt: Seeds of plant species selected from blackgrass (Alopecurus myosuroides), ryegrass, Italian (Italian ryegrass, Lolium multiflorum), wheat (winter wheat, Triticum aestivum), galium (catchweed bedstraw, Galium aparine), corn (Zea mays), crabgrass, large (large crabgrass, Digitaria sanguinalis), foxtail, giant, (giant foxtail, Setaria faberii), johnsongrass (Sorghum halepense), lambsquarters (Chenopodium album), morningglory (Ipomoea coccinea), nutsedge, yellow (yellow nutsedge, Cyperus esculentus), pigweed (Amaranthus retroflexus), ragweed (common ragweed, Ambrosia elatior), soybean (Glycine max), barnyardgrass (Echinochloa crus-galli), oilseed rape (Brassica napus), waterhemp (common waterhemp, Amaranthus rudis), and velvetleaf (Abutilon theophrasti) were planted into a blend of loam soil and sand and treated preemergence with test chemicals formulated in a non-phytotoxic solvent mixture which included a surfactant. At the same time, plants selected from these crop and weed species and also chickweed (common chickweed, Stellaria media), oat, wild (wild oat, Avena fatua), and kochia (Kochia scoparia), were planted in pots containing Sunshine Redi-Earth® planting medium comprising spaghnum peat moss, vermiculite, starter nutrients and dolomitic limestone and treated with postemergence applications of test chemicals formulated in the same manner. Plants ranged in height from 2 to 18 cm (1- to 4-leaf stage) for postemergence treatments. […] A dash (-) response means no test result.

[7] = tested on: bromegrass, down; experiment: Test D preemergence; assay type: in vivo, Bromus tectorum; settings: for Plant response rating: Bromegrass, Down: scale 0 to 100
Excerpt: as §1

[8] = tested on: buckwheat, wild; experiment: Test D postemergence; assay type: in vivo, Polygonum convolvulus; settings: scale 0 to 100
Excerpt: as §1

[9] = tested on: deadnettle; experiment: Test D postemergence; assay type: in vivo, Lamium amplexicaule; settings: scale 0 to 100
Excerpt: as §1

[10] = tested on: ryegrass, Italian; experiment: Test A preemergence; assay type: in vivo, Lolium multiflorum; settings: 0 to 100 scale (0 no effect, 100 complete control)
In short: as §2

SMILES: CCOc1nc(-c2ccc(C(F)(F)F)cc2)nn1Cc1ccnc(C(F)(F)F)c1 [Compound 35, 4-[[5-ethoxy-3-[4-(trifluoromethyl)phenyl]-1H-1,2,4-triazole-1-yl]methyl]-2-(trifluoromethyl)pyridine]
- Plant response rating: Galium ([1]; 16 g ai/ha): 70
- Plant response rating: Galium ([1]; 31 g ai/ha): 75
- Plant response rating: Galium ([1]; 62 g ai/ha): 80
- Plant response rating: Galium ([1]; 125 g ai/ha): 80
- Plant response rating: Barley, Spring ([2]; 16 g ai/ha): 30
- Plant response rating: Barley, Spring ([2]; 31 g ai/ha): 40
- Plant response rating: Barley, Spring ([2]; 62 g ai/ha): 40
- Plant response rating: Barley, Spring ([2]; 125 g ai/ha): 50
- Plant response rating: Barley, Winter ([3]; 16 g ai/ha): 25
- Plant response rating: Barley, Winter ([3]; 31 g ai/ha): 40
- Plant response rating: Barley, Winter ([3]; 62 g ai/ha): 40
- Plant response rating: Barley, Winter ([3]; 125 g ai/ha): 50
- Plant response rating, Galium ([4]; 31 g ai/ha): 90
- Plant response rating, Galium ([4]; 125 g ai/ha): 90
- Plant response rating: Radish, Wild ([5]; 16 g ai/ha): 85
- Plant response rating: Radish, Wild ([5]; 31 g ai/ha): 100
- Plant response rating: Radish, Wild ([5]; 62 g ai/ha): 100
- Plant response rating: Radish, Wild ([5]; 125 g ai/ha): 100
- Soybean plant response rating (0 to 100) ([6]; 31 g ai/ha): 20
- Soybean plant response rating (0 to 100) ([6]; 62 g ai/ha): 15
- Plant response rating (scale of 0 to 100 where 0 is no effect and 100 is complete control) ([6]; Soybean, preemergence, 250 g ai/ha): 65
- Plant response rating (0 to 100), Bromegrass, Down ([7]; 16 g ai/ha, 0 is no effect, 100 is complete control): 15
- Plant response rating: Bromegrass, Down ([7]; 31 g ai/ha): 40
- Plant response rating: Bromegrass, Down ([7]; 62 g ai/ha): 60
- Plant response rating: Bromegrass, Down ([7]; 125 g ai/ha): 75
- Plant response rating: Buckwheat, Wild ([8]; 16 g ai/ha): 65
- Plant response rating: Buckwheat, Wild ([8]; 31 g ai/ha): 70
- Plant response rating: Buckwheat, Wild ([8]; 62 g ai/ha): 70
- Plant response rating: Buckwheat, Wild ([8]; 125 g ai/ha): 95
- Plant response rating: Deadnettle ([9]; 16 g ai/ha): 55
- Plant response rating: Deadnettle ([9]; 31 g ai/ha): 65
- Plant response rating: Deadnettle ([9]; 62 g ai/ha): 75
- Plant response rating: Deadnettle ([9]; 125 g ai/ha): 90
- Plant response rating, Ryegrass, Italian ([10]; 31 g ai/ha): 30
- Plant response rating, Ryegrass, Italian ([10]; 125 g ai/ha): 60

Reference: patent publication US10681909B2, “Herbicidal triazoles” (FMC Corporation, priority 2014, dated 2020)
